Data set [1] deals with Staphylococcus aureus. Description: Antibacterial activity against Staphylococcus aureus up to 20 ug/ml. Type of data set: functional, organism-based.
Another data set relates to BT-549. Put plainly: Cytotoxicity against human BT549 cells by neutral red uptake assay. Type of data set: cell-based.
A short description of data set [2]: Inhibition of beta-hematin formation after 16 hrs. Type of data set: physicochemical.
The test system of the next data set is Vero. Put plainly: Cytotoxicity against African green monkey Vero cells by neutral red uptake assay. Type of data set: cell-based. Particulars: Chlorocebus sabaeus.
A short description of data set [3]: Selectivity index, ratio of IC50 for African green monkey Vero cells to IC50 for chloroquine-resistant Plasmodium falciparum W2. Type of data set: toxicity, cell-based. The settings on record: read-out: Ratio IC50.
The next data set concerns SK-OV-3. Put plainly: Cytotoxicity against human SKOV3 cells by neutral red uptake assay. Type of data set: cell-based.
The next data set has as its system KB. Description: Cytotoxicity against human KB cells by neutral red uptake assay. Type of data set: cell-based.
The subject of data set [4] is Plasmodium falciparum. Description: Antimalarial activity against chloroquine-sensitive Plasmodium falciparum D6 by lactate dehydrogenase assay. Type of data set: functional, organism-based. Particulars: Plasmodium falciparum, D6; read-out: IC50.
The test system of data set [5] is Cryptococcus neoformans. Description: Antifungal activity against Cryptococcus neoformans by broth microdilution assay. Type of data set: functional, organism-based.
Data set [6] concerns Mycobacterium intracellulare. Put plainly: Antibacterial activity against Mycobacterium intracellulare. Type of data set: functional, organism-based.
Another data set concerns Aspergillus fumigatus. Description: Antifungal activity against Aspergillus fumigatus by broth microdilution assay. Type of data set: functional, organism-based.
A further data set concerns Leishmania donovani. Put plainly: Antileishmanial activity against Leishmania donovani promastigotes by Alamar Blue assay. Type of data set: functional, organism-based.
Data set [7] concerns Plasmodium berghei. Put plainly: Antimalarial activity against Plasmodium berghei infected in mouse assessed as reduction in parasitemia at 100 mg/kg/day, po for 4 days measured up to day 14. Type of data set: functional.
The test system of another data set is LLC-PK1. Description: Cytotoxicity against pig LLC-PK1 cells by neutral red uptake assay. Type of data set: cell-based. The settings on record: Sus scrofa.
Data set [8] concerns Staphylococcus aureus. Put plainly: Antibacterial activity against Staphylococcus aureus. Type of data set: functional, organism-based.
The test system of the next data set is Pseudomonas aeruginosa. Description: Antibacterial activity against Pseudomonas aeruginosa. Type of data set: functional, organism-based.
The next data set has as its system Nakaseomyces glabratus. Description: Antifungal activity against Candida glabrata by broth microdilution assay. Type of data set: functional, organism-based.
In another data set the test system is Pichia kudriavzevii. Put plainly: Antifungal activity against Candida krusei by broth microdilution assay. Type of data set: functional, organism-based.
Data set [9] can be described thus: Selectivity index, ratio of IC50 for African green monkey Vero cells to IC50 for chloroquine-sensitive Plasmodium falciparum D6. Type of data set: toxicity, cell-based. The settings on record: read-out: Ratio IC50.
For the next data set, the system named is Candida albicans. Description: Antifungal activity against Candida albicans by broth microdilution assay. Type of data set: functional, organism-based.
Another data set relates to SK-MEL. Put plainly: Cytotoxicity against human SK-MEL cells by neutral red uptake assay. Type of data set: cell-based.
For another data set, the system named is Escherichia coli. Put plainly: Antibacterial activity against Escherichia coli. Type of data set: functional, organism-based.
Data set [10] has as its system Mycobacterium intracellulare. Put plainly: Antibacterial activity against Mycobacterium intracellulare up to 20 ug/ml. Type of data set: functional, organism-based.
In data set [11] the test system is Plasmodium falciparum. Put plainly: Antimalarial activity against chloroquine-resistant Plasmodium falciparum W2 by lactate dehydrogenase assay. Type of data set: functional, organism-based. Particulars: Plasmodium falciparum, W2; read-out: IC50.
Data set [12] deals with Staphylococcus aureus. Description: Antibacterial activity against methicillin-resistant Staphylococcus aureus. Type of data set: functional, organism-based.
Another data set deals with Plasma. Put plainly: Half life in human plasma. Type of data set: ADME, cell-free.
The subject of data set [13] is Plasmodium berghei. Description: Antimalarial activity against Plasmodium berghei infected in mouse assessed as reduction in parasitemia at 50 mg/kg/day, po for 4 days measured up to day 60 relative to control. Type of data set: functional. Set-up: scale not given: the % may be the effect or the level left.
Data set [14] deals with Plasmodium berghei. Description: Antimalarial activity against Plasmodium berghei infected in mouse assessed as reduction in parasitemia at 25 mg/kg/day, po for 4 days measured up to day 60 relative to control. Type of data set: functional. Set-up: scale not given: the % may be the effect or the level left.
The test system of data set [15] is Plasmodium berghei. Description: Antimalarial activity against Plasmodium berghei infected in mouse assessed as reduction in parasitemia at 100 mg/kg/day, po for 4 days measured up to day 60 relative to control. Type of data set: functional. Also on record: scale not given: the % may be the effect or the level left.
Data set [16] relates to Plasmodium berghei. Put plainly: Antimalarial activity against Plasmodium berghei infected in mouse assessed as reduction in parasitemia at 10 mg/kg/day, po for 4 days measured up to day 7. Type of data set: functional, organism-based.
In data set [17] the test system is Cryptococcus neoformans. Put plainly: Antifungal activity against Cryptococcus neoformans up to 20 ug/ml by broth microdilution assay. Type of data set: functional, organism-based.
For data set [18], the system named is Staphylococcus aureus. Put plainly: Antibacterial activity against methicillin-resistant Staphylococcus aureus up to 20 ug/ml. Type of data set: functional, organism-based.

pIC50: −log10 of the molar value. Activity calls are given as the source filed them. The rule behind the calls is not given here. Bounds are passed on as bounds.

For the compound `CCCCCCCCOc1c(OC)cc(NC(C)CCCNC(C)CCCN)c2nccc(CC)c12.Cl` (configuration not stated), the result with Staphylococcus aureus [1], in the data set on Aspergillus fumigatus, with Plasmodium berghei [7], in the data set on Pseudomonas aeruginosa, with Nakaseomyces glabratus and with Pichia kudriavzevii was inactive. The result (with Candida albicans; with Escherichia coli; in data set [10]) was inactive. Moreover, the half-inhibitory concentration (IC50) is over 23.8 mg/L with BT-549; over 23.8 mg/L in the data set on Vero; over 23.8 mg/L in the data set on SK-OV-3; over 23.8 mg/L with KB; 0.92 mg/L with Plasmodium falciparum [4]; 8.5 mg/L in the data set on Cryptococcus neoformans [5]. Moreover, the IC50 is over 20 mg/L in [6]; 17 mg/L with Leishmania donovani; over 23.8 mg/L in the data set on LLC-PK1; 14.5 mg/L in the data set on Staphylococcus aureus [8]; over 23.8 mg/L in the data set with SK-MEL; 0.82 mg/L in the data set on Plasmodium falciparum [11]. In the data set on Staphylococcus aureus [12], this compound registered a half-maximal inhibitory concentration (IC50) of 10.4 mg/L. In data set [2], this compound gave a pIC50 of 4.80. In addition, the selectivity ratio is over 29 in data set [3] and over 25.8 in data set [9]. Moreover, the minimum fungicidal concentration (MFC) in the data set on Cryptococcus neoformans [5] is 20 mg/L. The MIC in the data set on Cryptococcus neoformans [5] and with Staphylococcus aureus [12] was 20 mg/L in each case. Moreover, in the data set on Leishmania donovani, the IC90 amounted to 32 mg/L. The minimal bactericidal concentration (MBC) against Staphylococcus aureus [12] was found to be 20 mg/L.
`COc1cc(NC(C)CCCN)c2ncccc2c1` (configuration not stated) [PRIMAQUINE] showed a negative logarithm of the IC50 (pIC50) in data set [2] of under 3.00. Further, the IC50 in the data set with Vero is over 23.8 mg/L. For the same compound, the IC90 entry in the data set on Leishmania donovani is “inactive”. In the data set on Plasma, the t1/2 stood at 4 h.
Regarding `COc1cc(NC(C)CCCNC(C)CCCN)c2ncccc2c1.Cl` (configuration not stated), the half-maximal inhibitory concentration (IC50) with BT-549 was over 23.8 mg/L; in the data set on Vero, over 23.8 mg/L; with SK-OV-3 it was over 23.8 mg/L; in the data set with KB, over 23.8 mg/L; in the data set on Plasmodium falciparum [4], 0.57 mg/L; in data set [6] it was 10 mg/L. The half-maximal inhibitory concentration (IC50) in the data set on Leishmania donovani is 32 mg/L; in the data set with LLC-PK1, over 23.8 mg/L; with SK-MEL it was over 23.8 mg/L; in the data set on Plasmodium falciparum [11], 0.8 mg/L. The same compound gave a pIC50 in [2] of 4.73. The Activity in the data set on Plasmodium berghei [13], with Plasmodium berghei [14], with Plasmodium berghei [15] and with Plasmodium berghei [7] was 100% in each case. For the same compound, the results for the selectivity ratio in [3] and in [9] were over 29.7 and over 41.7, respectively. The result in the data set on Aspergillus fumigatus, in the data set on Pseudomonas aeruginosa, with Nakaseomyces glabratus, in the data set on Pichia kudriavzevii, in the data set with Cryptococcus neoformans [17] and in the data set on Candida albicans was inactive. Further, the outcome (with Escherichia coli; in data set [10]; in the data set with Staphylococcus aureus [18]) was inactive. In addition, in the data set with Leishmania donovani, the IC90 entry is “inactive”. The result with Plasmodium berghei [16] was Active.

Values taken from ChEMBL document CHEMBL3217667, “Extended side chain analogues of 8-aminoquinolines: Synthesis and evaluation of antiprotozoal, antimicrobial, -hematin inhibition, and cytotoxic activities” (Medchemcomm, 2011).
